The source of these data is the supplement of paper PMC10331698.

Holding throughout (test): level (log10 ratio to DMSO vehicle control); higher = higher biomarker level / cell amount than vehicle control
Compound in test [1]: O=S(=O)(OCC(F)(F)F)C(F)(F)C(F)(F)C(F)(F)C(F)(F)F [2,2,2-Trifluoroethyl perfluorobutanesulfonate]
The conditions noted are these: in DMSO. As to the method:
(§1)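 BioMAP Diversity Plus panel of 12 human primary cell co-culture systems (3C, 4H, LPS, SAg, BT, BF4T, BE3C, CASM3C, HDF3CGF, KF3CT, MyoF, Mphg). Compounds were added 1 h before stimulation and left for 24 h (MyoF 48 h; BT 72 h for soluble read-outs or 6 d for IgG). Biomarkers were read by ELISA, cytotoxicity by SRB, PBMC viability and proliferation by Alamar Blue. Each well value was divided by the mean of 8 DMSO control wells on the same plate and log10 transformed; duplicate blinded samples were tested at 4 concentrations.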

Compound in test [2]: FC(F)(F)COC(OCC(F)(F)F)OCC(F)(F)F [tris(Trifluoroethoxy)methane]
The conditions noted are these: in DMSO. On the procedure: as §1

Compound in test [3]: C=CC(=O)OCC(F)(F)C(F)(F)C(F)(F)C(F)(F)COC(=O)C=C [1H,1H,6H,6H-Perfluorohexane-1,6-diol diacrylate]
Conditions: 6700 nM; in DMSO. On the procedure:
as §1

Compound in test [4]: C=CC(=O)OCC(F)(F)C(F)(F)C(F)(F)C(F)(F)C(F)(F)C(F)(F)C(F)(F)C(F)F [1H,1H,9H-Perfluorononyl acrylate]
Conditions: in DMSO. On the procedure: as §1

Compound in test [5]: FC(F)(F)C(F)(F)C(F)(F)C(F)(F)CCI [1H,1H,2H,2H-Perfluorohexyl iodide]
Conditions: in DMSO. On the procedure:
as §1

Compound in test [6]: Cc1ccc(S(=O)(=O)OCC(F)(F)C(F)(F)C(F)(F)C(F)(F)C(F)(F)C(F)F)cc1 [1H,1H,7H-Perfluoroheptyl 4-methylbenzenesulfonate]
The conditions noted are these: in DMSO. On the procedure: as §1

Compound in test [7]: OCC(F)(F)C(F)(F)C(F)(F)C(F)(F)C(F)(F)C(F)(F)C(F)(F)C(F)(F)CO [1H,1H,10H,10H-Perfluorodecane-1,10-diol]
Conditions: in DMSO. As to the method:
as §1

± gives the standard deviation of the averaged measurements.

In the case of BE3C:MMP-1, the “level (log10)” value turned out to be 0.01 ± 0.031 in test [1] (6700 nM); 0.0165 ± 0.00071 in test [1] (20000 nM); 0.0165 ± 0.00071 in test [1] (60000 nM); 0.004 ± 0.059 in test [2] (6700 nM); 0.004 ± 0.025 in test [2] (20000 nM); 0.01 ± 0.0099 in test [2] (60000 nM). For the same test system, the “level (log10)” value was -0.0035 ± 0.011 in test [3]; -0.023 ± 0.013 in test [4] (6700 nM); -0.009 ± 0.027 in test [4] (20000 nM); 0.038 ± 0.064 in test [4] (60000 nM); 0 ± 0.023 in test [5] (6700 nM); 0.017 ± 0.021 in test [5] (20000 nM). Also, the “level (log10)” value came out at 0.0975 ± 0.023 in test [5] (60000 nM); 0.044 ± 0.0099 in test [6] (6700 nM); 0.051 ± 0.038 in test [6] (20000 nM); 0.094 ± 0.061 in test [6] (60000 nM); 0.054 ± 0.0071 in test [7] (6700 nM); 0.103 ± 0.042 in test [7] (20000 nM). Besides, in test [7] (60000 nM), the “level (log10)” value came to 0.137.

On to KF3CT:CXCL9/MIG, for which the “level (log10)” value stood at 0.023 ± 0.021 in test [1] (6700 nM); 0.0095 ± 0.028 in test [1] (20000 nM); 0.0015 ± 0.053 in test [1] (60000 nM); 0.0215 ± 0.032 in test [2] (6700 nM); 0.006 ± 0.027 in test [2] (20000 nM); 0.0175 ± 0.015 in test [2] (60000 nM). Further, the “level (log10)” value was -0.034 ± 0.0071 in test [3]; -0.0145 ± 0.0035 in test [4] (6700 nM); -0.007 ± 0.017 in test [4] (20000 nM); -0.019 ± 0.0057 in test [4] (60000 nM); 0.004 ± 0.0099 in test [5] (6700 nM); 0.0095 ± 0.011 in test [5] (20000 nM). The “level (log10)” value is 0.0135 ± 0.033 in test [5] (60000 nM); -0.005 ± 0.014 in test [6] (6700 nM); -0.0025 ± 0.012 in test [6] (20000 nM); -0.008 ± 0.0057 in test [6] (60000 nM); -0.0055 ± 0.0092 in test [7] (6700 nM); -0.0085 ± 0.005 in test [7] (20000 nM). Also, the “level (log10)” value in test [7] (60000 nM) is -0.195.

For CASM3C:CXCL9/MIG, the “level (log10)” value in test [1] (6700 nM) was -0.0035 ± 0.026; in test [1] (20000 nM) it was -0.014 ± 0.047; in test [1] (60000 nM), -0.072 ± 0.09; in test [2] (6700 nM), 0.0015 ± 0.012; in test [2] (20000 nM) it was -0.0115 ± 0.0064; in test [2] (60000 nM), -0.0145 ± 0.005. Moreover, the “level (log10)” value was -0.154 ± 0.031 in test [3]; -0.014 ± 0.0042 in test [4] (6700 nM); -0.0045 ± 0.028 in test [4] (20000 nM); -0.0035 ± 0.03 in test [4] (60000 nM); 0.016 ± 0.028 in test [5] (6700 nM); 0.022 ± 0.03 in test [5] (20000 nM). Moreover, the “level (log10)” value is 0.0575 ± 0.09 in test [5] (60000 nM); -0.0085 ± 0.011 in test [6] (6700 nM); -0.0195 ± 0.013 in test [6] (20000 nM); 0.0135 ± 0.0021 in test [6] (60000 nM); -0.001 in test [7] (6700 nM); -0.0035 ± 0.005 in test [7] (20000 nM). In addition, in test [7] (60000 nM), the “level (log10)” value was -0.039.

With lMphg:IL-1alpha, the “level (log10)” value in test [1] (6700 nM) was -0.012 ± 0.0028; in test [1] (20000 nM) it was -0.0425 ± 0.06; in test [1] (60000 nM), -0.073 ± 0.0014; in test [2] (6700 nM) it was -0.031 ± 0.014; in test [2] (20000 nM), -0.03 ± 0.0028; in test [2] (60000 nM), -0.006 ± 0.03. Also, the “level (log10)” value in test [3] was 0.0245 ± 0.057; in test [4] (6700 nM) it was 0.006 ± 0.038; in test [4] (20000 nM) it was -0.0025 ± 0.054; in test [4] (60000 nM) it was 0.0195 ± 0.063; in test [5] (6700 nM), 0.008; in test [5] (20000 nM), 0.0045 ± 0.012. Moreover, the “level (log10)” value in test [5] (60000 nM) was 0.0345 ± 0.0078; in test [6] (6700 nM) it was -0.034 ± 0.017; in test [6] (20000 nM), -0.036 ± 0.042; in test [6] (60000 nM), 0.033 ± 0.099; in test [7] (6700 nM), 0.002 ± 0.028; in test [7] (20000 nM) it was 0.0055 ± 0.046. For the same test system, the “level (log10)” value in test [7] (60000 nM) is -0.167.

On to 3C:CD142/Tissue Factor, for which the “level (log10)” value in test [1] (6700 nM) is 0.0285 ± 0.046; in test [1] (20000 nM), 0.011 ± 0.037; in test [1] (60000 nM), -0.018 ± 0.034; in test [2] (6700 nM), -0.0195 ± 0.07; in test [2] (20000 nM) it was -0.009 ± 0.052; in test [2] (60000 nM), -0.028. Also, the “level (log10)” value in test [3] is -0.134 ± 0.04; in test [4] (6700 nM), -0.007 ± 0.0028; in test [4] (20000 nM), -0.0145 ± 0.016; in test [4] (60000 nM), -0.024 ± 0.033; in test [5] (6700 nM), -0.0125 ± 0.028; in test [5] (20000 nM), 0.0155 ± 0.047. Further, the “level (log10)” value was 0.0725 ± 0.037 in test [5] (60000 nM); 0.0065 ± 0.015 in test [6] (6700 nM); -0.0025 ± 0.021 in test [6] (20000 nM); -0.0445 ± 0.036 in test [6] (60000 nM); -0.0585 ± 0.028 in test [7] (6700 nM); -0.0685 ± 0.032 in test [7] (20000 nM). In addition, in test [7] (60000 nM), the “level (log10)” value was -0.107.

On to CASM3C:IL-6, for which the “level (log10)” value is -0.02 ± 0.033 in test [1] (6700 nM); -0.0685 ± 0.0078 in test [1] (20000 nM); -0.029 ± 0.024 in test [1] (60000 nM); -0.019 ± 0.0028 in test [2] (6700 nM); -0.0295 ± 0.011 in test [2] (20000 nM); 0.005 ± 0.067 in test [2] (60000 nM). The “level (log10)” value in test [3] is -0.0735 ± 0.15; in test [4] (6700 nM), -0.036 ± 0.042; in test [4] (20000 nM) it was 0.0085 ± 0.074; in test [4] (60000 nM) it was -0.031 ± 0.047; in test [5] (6700 nM), 0.0195 ± 0.028; in test [5] (20000 nM), 0.005 ± 0.025. Also, the “level (log10)” value was 0.036 ± 0.098 in test [5] (60000 nM); -0.035 ± 0.013 in test [6] (6700 nM); -0.0435 ± 0.005 in test [6] (20000 nM); -0.0155 ± 0.033 in test [6] (60000 nM); -0.045 ± 0.027 in test [7] (6700 nM); -0.071 ± 0.025 in test [7] (20000 nM). Besides, in test [7] (60000 nM), the “level (log10)” value was -0.059.

With MyoF:bFGF, the “level (log10)” value is -0.015 ± 0.0042 in test [1] (6700 nM); -0.0015 ± 0.03 in test [1] (20000 nM); -0.0195 ± 0.00071 in test [1] (60000 nM); -0.004 ± 0.0042 in test [2] (6700 nM); -0.0155 ± 0.011 in test [2] (20000 nM); -0.006 ± 0.0028 in test [2] (60000 nM). The “level (log10)” value in test [3] came to 0.0155 ± 0.0064; in test [4] (6700 nM) it was 0.012 ± 0.0057; in test [4] (20000 nM), 0.0155 ± 0.021; in test [4] (60000 nM), 0.027 ± 0.0014; in test [5] (6700 nM), 0.0095 ± 0.021; in test [5] (20000 nM), 0.0205 ± 0.026. Besides, the “level (log10)” value in test [5] (60000 nM) is 0.0285 ± 0.042; in test [6] (6700 nM) it was -0.0005 ± 0.0021; in test [6] (20000 nM) it was 0.012 ± 0.0071; in test [6] (60000 nM), 0.009 ± 0.017; in test [7] (6700 nM) it was -0.007 ± 0.011; in test [7] (20000 nM), 0.0005 ± 0.00071. Moreover, the “level (log10)” value in test [7] (60000 nM) was 0.005.
